Measurements taken from US12390441B2, “Immunomodulating o-het/aryl azalides” (Zoetis Services LLC, priority 2020, dated 2025).
Marks after values point to notes of the source that are not given here.

Columns and labels:
P. multocida 46572 = experiment: In vivo mouse lung infection challenge model (murine); parameters: species or system CD-1 female mice; conditions: 46572, sc, 20 mg/kg, 240 h
Description: The challenge organism was P. multocida 46572. Target challenge concentration was 5×10^2 CFU/mouse. Isolated colonies from overnight growth (37° C. with 5% CO2) on trypticase soy agar (TSA II) blood plates were transferred to room temperature Brain Heart Infusion Broth (BHIB). The broth culture was incubated 3.5-4 hours to approximately mid-log phase of growth, as measured by forward light scatter at 600 nm (OD600, 0.200). The culture was centrifuged to collect the bacterial pellet. The pellet was re-suspended in BHIB and adjusted to provide an approximate concentration of 2.7 log^10 colony forming units (CFU) in 0.04 mL at the highest concentration. The challenge inoculum concentration was confirmed by serial dilutions of the inoculum for CFU enumeration. On Day −5, CD-1 female mice were received. Mice were given standard rodent diet and water ad libitum. On Day 0, bacterial inoculum (0.04 mL) was administered to each mouse (n=36) intranasally. Compounds of the invention were dosed at 20 mg/kg (0.1 mL) in a buffered (˜pH 5.4) propylene glycol, monothioglycerol and water solution by subcutaneous injection. Animals were observed from Days 1-10. The study was terminated on Day 10. In addition, some treatment groups were sampled at 6, 24, and 48 hours post bacterial challenge for RNA sequence analysis of lung tissue.
The murine efficacy model (P. multocida challenge) was optimized, and the treatment group size was powered to be able to observe statistically significant improvement of survival to expected ranges for immunomodulatory compounds. The experimental design was a randomized complete block design. Mice were individually identified and treatment groups comingled within a cage, with every treatment group equally represented across cages. Mortality was the primary variable. Mortality data was analyzed using a generalized mixed model with fixed effect of treatment and random effect of block. Survival time was also analyzed using the SAS PHREG (survival analysis) procedure to examine whether there were significant differences between treatment groups and the control group. Numerous compounds of the invention and M9 (positive control) were tested in this model at a dose of 20 mg/kg (Table 3). Typical percent survival for no treatment control is in the range of 0-20% based on study to study variation in challenge inoculum and rate of infection. […] Mouse survival for M9 was about 90-100%, further supporting its residual antibacterial properties against the bacterial strain. Harmonized survival accounts for % survival relative to vehicle (“−” control) and M9 (“+” control)) survival data (Table 3).

[1] = tested on: BRD pathogens, M. haemolytica and P. multocida; experiment: In-vitro MIC model, BRD pathogen screening panel; assay type: cell-based, Mannheimia haemolytica; Pasteurella multocida; conditions: at least one BRD strain
TNF-α = experiment: Whole blood assay, LPS stimulation, MSD cytokine detection; assay type: cell-based; conditions: fresh whole bovine blood
IL-1β = experiment: as above; assay type: cell-based, bovine; conditions: fresh whole bovine blood, LPS stimulation; drug concentration giving overstimulation (OS) of IL-1β
IL-6 = experiment: as above; assay type: cell-based; conditions: fresh whole bovine blood

SMILES	IC50 (TNF-α) [µM]	IC50 (IL-6) [µM]	% Survival (P. multocida 46572) [%]	MIC flag at the example number (Table E) [1]	IL-1ß OS of LPS (IL-1β) [µM]
CC[C@H]1OC(=O)[C@H](C)[C@@H](O)[C@H](C)[C@@H](O[C@@H]2O[C@H](C)C[C@H](N(C)C(=O)N(C)c3ccccc3)[C@H]2Oc2ccccc2)[C@](C)(O)C[C@@H](C)CN(C)[C@H](C)[C@@H](O)[C@]1(C)O [Example C-12, 1-((2S,3R,4S,6R)-2-(((2R,3S,4R,5R,8R,10R,11R,12S,13S,14R)-2-ethyl-3,4,10,13-tetrahydroxy-3,5,6,8,10,12,14-heptamethyl-15-oxo-1-oxa-6-azacyclopentadecan-11-yl)oxy)-6-methyl-3-phenoxytetrahydro-2H-pyran-4-yl)-1,3-dimethyl-3-phenylurea]			12		
CC[C@H]1OC(=O)[C@H](C)[C@@H](O)[C@H](C)[C@@H](O[C@@H]2O[C@H](C)C[C@H](N(C)C(=O)N(C)c3cc(C)n(C)n3)[C@H]2Oc2ccccc2)[C@](C)(O)C[C@@H](C)CN[C@H](C)[C@@H](O)[C@]1(C)O [Example C-26, 1-(1,5-dimethyl-1H-pyrazol-3-yl)-3-((2S,3R,4S,6R)-2-(((2R,3S,4R,5R,8R,10R,11R,12S,13S,14R)-2-ethyl-3,4,10,13-tetrahydroxy-3,5,8,10,12,14-hexamethyl-15-oxo-1-oxa-6-azacyclopentadecan-11-yl)oxy)-6-methyl-3-phenoxytetrahydro-2H-pyran-4-yl)-1,3-dimethylurea]			8		
CC[C@H]1OC(=O)[C@H](C)[C@@H](O)[C@H](C)[C@@H](O[C@@H]2O[C@H](C)C[C@H](N(C)C(=O)N(C)c3cc(C)n(C)n3)[C@H]2Oc2ccccc2)[C@](C)(O)C[C@@H](C)CN(C)[C@H](C)[C@@H](O)[C@]1(C)O [Example C-30, 1-(1,5-dimethyl-1H-pyrazol-3-yl)-3-((2S,3R,4S,6R)-2-(((2R,3S,4R,5R,8R,10R,11R,12S,13S,14R)-2-ethyl-3,4,10,13-tetrahydroxy-3,5,6,8,10,12,14-heptamethyl-15-oxo-1-oxa-6-azacyclopentadecan-11-yl)oxy)-6-methyl-3-phenoxytetrahydro-2H-pyran-4-yl)-1,3-dimethylurea]			0		
CCCNC[C@]1(O)[C@H](C)O[C@@H](O[C@H]2[C@H](C)[C@@H](O[C@@H]3O[C@H](C)C[C@H](NC)[C@H]3Oc3cc(F)c(OC)c(F)c3)[C@](C)(O)C[C@@H](C)CN[C@H](C)[C@@H](O)[C@](C)(O)[C@@H](CC)OC(=O)[C@@H]2C)C[C@@]1(C)OC [Example E-9]	18	30		E-9* (MIC ≤ 64 μg/mL for at least one BRD strain)	40
CCCNC[C@]1(O)[C@H](C)O[C@@H](O[C@H]2[C@H](C)[C@@H](O[C@@H]3O[C@H](C)C[C@H](NC)[C@H]3Oc3ccc(OC)c(OC(C)C)c3)[C@](C)(O)C[C@@H](C)CN[C@H](C)[C@@H](O)[C@](C)(O)[C@@H](CC)OC(=O)[C@@H]2C)C[C@@]1(C)OC [Example E-20]	25	40		E-20* (MIC ≤ 64 μg/mL for at least one BRD strain)	100
CCCNC[C@]1(O)[C@H](C)O[C@@H](O[C@H]2[C@H](C)[C@@H](O[C@@H]3O[C@H](C)C[C@H](N(C)C(=O)N(C)c4cc(C)n(C)n4)[C@H]3Oc3ccccc3)[C@](C)(O)C[C@@H](C)CN[C@H](C)[C@@H](O)[C@](C)(O)[C@@H](CC)OC(=O)[C@@H]2C)C[C@@]1(C)OC [Example F-19, 1-(1,5-dimethyl-1H-pyrazol-3-yl)-3-((2S,3R,4S,6R)-2-(((2R,3S,4R,5R,8R,10R,11R,12S,13S,14R)-2-ethyl-3,4,10-trihydroxy-13-(((2R,4R,5S,6S)-5-hydroxy-4-methoxy-4,6-dimethyl-5-((propylamino)methyl)tetrahydro-2H-pyran-2-yl)oxy)-3,5,8,10,12,14-hexamethyl-15-oxo-1-oxa-6-azacyclopentadecan-11-yl)oxy)-6-methyl-3-phenoxytetrahydro-2H-pyran-4-yl)-1,3-dimethylurea]			35		

The next lines start with results.

IC50 (TNF-α) [µM]	IC50 (IL-6) [µM]	SMILES	% Survival (P. multocida 46572) [%]	MIC flag at the example number (Table E) [1]	IL-1ß OS of LPS (IL-1β) [µM]
3	10	CCCNC[C@]1(O)[C@H](C)O[C@@H](O[C@H]2[C@H](C)[C@@H](O[C@@H]3O[C@H](C)C[C@H](NC)[C@H]3Oc3ccc(F)c(F)c3)[C@](C)(O)C[C@@H](C)CN[C@H](C)[C@@H](O)[C@](C)(O)[C@@H](CC)OC(=O)[C@@H]2C)C[C@@]1(C)OC [Example E-36]		E-36* (MIC ≤ 64 μg/mL for at least one BRD strain)	16
11	120	CCCNC[C@]1(O)[C@H](C)O[C@@H](O[C@H]2[C@H](C)[C@@H](O[C@@H]3O[C@H](C)C[C@H](NC)[C@H]3Oc3ccc4ccncc4c3)[C@](C)(O)C[C@@H](C)CN[C@H](C)[C@@H](O)[C@](C)(O)[C@@H](CC)OC(=O)[C@@H]2C)C[C@@]1(C)OC [Example E-56]		E-56* (MIC ≤ 64 μg/mL for at least one BRD strain)	100
5	19	CCCNC[C@]1(O)[C@H](C)O[C@@H](O[C@H]2[C@H](C)[C@@H](O[C@@H]3O[C@H](C)C[C@H](NC)[C@H]3Oc3ccccc3C)[C@](C)(O)C[C@@H](C)CN[C@H](C)[C@@H](O)[C@](C)(O)[C@@H](CC)OC(=O)[C@@H]2C)C[C@@]1(C)OC [Example E-61]		E-61* (MIC ≤ 64 μg/mL for at least one BRD strain)	16
5	8	CC[C@H]1OC(=O)[C@H](C)[C@@H](O[C@H]2C[C@@](C)(OC)[C@](O)(CNc3ccccc3)[C@H](C)O2)[C@H](C)[C@@H](O[C@@H]2O[C@H](C)C[C@H](N(C)C)[C@H]2Oc2ccccc2)[C@](C)(O)C[C@@H](C)CN[C@H](C)[C@@H](O)[C@]1(C)O [Example E-67]		E-67* (MIC ≤ 64 μg/mL for at least one BRD strain)	6
5	18	CCCNC[C@]1(O)[C@H](C)O[C@@H](O[C@H]2[C@H](C)[C@@H](O[C@@H]3O[C@H](C)C[C@H](N(C)C)[C@H]3Oc3cccc(OC)c3)[C@](C)(O)C[C@@H](C)CN[C@H](C)[C@@H](O)[C@](C)(O)[C@@H](CC)OC(=O)[C@@H]2C)C[C@@]1(C)OC [Example E-73]		E-73* (MIC ≤ 64 μg/mL for at least one BRD strain)	16
22	66	CCCNC[C@]1(O)[C@H](C)O[C@@H](O[C@H]2[C@H](C)[C@@H](O[C@@H]3O[C@H](C)C[C@H](NC)[C@H]3Oc3ccc(OC)nc3OC)[C@](C)(O)C[C@@H](C)CN[C@H](C)[C@@H](O)[C@](C)(O)[C@@H](CC)OC(=O)[C@@H]2C)C[C@@]1(C)OC [Example E-77]		E-77* (MIC ≤ 64 μg/mL for at least one BRD strain)	18
12	8	CCCNC[C@]1(O)[C@H](C)O[C@@H](O[C@H]2[C@H](C)[C@@H](O[C@@H]3O[C@H](C)C[C@H](NC)[C@H]3Oc3cc(F)c(F)c(F)c3)[C@](C)(O)C[C@@H](C)CN[C@H](C)[C@@H](O)[C@](C)(O)[C@@H](CC)OC(=O)[C@@H]2C)C[C@@]1(C)OC [Example E-90]		E-90* (MIC ≤ 64 μg/mL for at least one BRD strain)	6
